Experiment [1] relates to MDA-MB-231 cells. Put plainly: MTT cell viability assay. The experiment is classed as cell-based. As for the experimental part:
(§1) MDA-MB-468 and MDA-MB-436 cells were cultured in Leibovitz’s L-15 medium supplemented with 10% fetal bovine serum. […] All of the cells were cultured at 37 °C in a humidified atmosphere containing 5% CO2.
(§2) Cancer cells were seeded in a density in 96-well plates (2 × 10^3 cells per well). After incubation for 24 h, cancer cells were treated with compounds (0–20 μM) for 72 h.
(Tetrazolium dyes change colour on reduction, which living cells bring about.)

The test system of experiment [2] is MDA-MB-468 cells. In words: MTT cell viability assay. The experiment is classed as cell-based. As for the experimental part: as §1, §2
In experiment [3] the test system is MDA-MB-231 xenograft. Put plainly: MDA-MB-231 xenograft tumor growth inhibition. In kind it is in vivo, nude mice (BALB/c-nu). The conditions noted are these: 50 mg/kg (each drug), intragastric once daily, 16 days, by tumor weight. As for the experimental part:
All procedures were performed in accordance with the Laboratory Animals Welfare Act, the Guide for the Care and Use of Laboratory Animals and the Guidelines and Policies. The rodent experiment was approved by IACUC (Institutional Animal Care and Use Committee) in the Experimental Animal Ethics Committee of West China Hospital (Approval No. 2021672A). 48 female nude mice (BALB/c-nu, 5 weeks, 15–18 g, purchased from Beijing HFK Bio-Technology Co., LTD) were acclimatized for one week in an SPF-grade animal facility (ventilated, 20–25 °C, 50–60% humidity). […] When the tumor volume reached approximately 100 mm^3 (V = L × W^2/2), the mice were randomly divided into six groups (n = 8 per group): (1) Control group (normal saline); (2) 25 mg/kg SKLB-D18-treated group; (3) 50 mg/kg SKLB-D18-treated group; (4) 50 mg/kg BVD-523-treated group; (5) 50 mg/kg XMD8-92-treated group; (6) BVD-523 (50 mg/kg) and XMD8-92 (50 mg/kg) combined treatment group. Drugs were freshly prepared with 5% DMSO, 10% Solutol HS-15, and 85% normal saline on the day of administration. Intragastric administration occurred once daily at the same time for 16 consecutive days. And the body weight and tumor volume of mice were measured every three days. After the administration period, all nude mice were euthanized by cervical dislocation the next day. Tumors and vital organs (heart, liver, spleen, lung, kidney) were dissected, and tumors were weighed, then immediately fixed in 4% paraformaldehyde or stored in −80 °C.

Experiment [4] concerns the target ERK1 (Homo sapiens, UniProt P27361). In words: ADP-Glo kinase assay. The experiment is classed as biochemical. The conditions noted are these: for inhibition at 0.5 µM: read-out: Enzyme inhibitory activity (500 nM, %) ERK1. On the procedure: (§3) The full-length human ERK1 or ERK2 with His-tag was cloned into a pET28a vector. hERK1/2 were expressed in Escherichia coli BL21(DE3), and then were purified using sequential Ni-NTA and Superdex 200 column steps. The SEC purified sample was then concentrated to 10 mg/ml and stored at −80 °C with buffer containing 20 mM HEPES pH 7.5, 150 mM NaCl. ERK5 (residues 48–395) containing His and GST tags was cloned into the pFastBac vector, and the recombinant plasmid was extracted. The recombinant plasmid was transformed into the DH10bac strain, and monoclonal was selected for culture. The recombinant Bacmid was then extracted according to the instructions of the Baculovirus Shuttle Vector Bacmid Mini Preparation Kit (Beyotime) and validated by PCR. 1 × 10^6/well Sf9 cells were counted for transfection and then amplified to obtain P3 ERK5 recombinant baculovirus. It was added to 2 × 10^6/mL Sf9 cells and incubated at 27 °C for 72 h on a shaker to express ERK5. Cells were lysed and supernatant was collected on a Ni-NTA for purification, and a 250 mM imidazole eluate was collected. Next, digestion by TEV protease was performed overnight while dialysis was performed in approximately 1000 mL of imidazole-free buffer. The digested ERK5 protein was sequentially purified on the Ni-NTA and GST-tag Purification Resin, followed by size exclusion chromatography on a Superdex 75 column. ERK5 protein was collected and concentrated to 12 mg/ml and stored at −80 °C in buffer containing 50 mM HEPES pH 8.0, 200 mM NaCl, 10% (v/v) glycerol.
(§4) ERK1/2/5 kinase activity assay was conducted using ADP-Glo™ Kinase Assay. 2× ATP solution and 2× kinase & Metal solution were prepared using assay buffer were prepared using assay buffer containing 50 mM Hepes pH 7.5, 10 mM MgCl2; 0.01% Brij35, 1 mM EGTA, 2 mM DTT. Transfer 40 nL compounds to 384 assay plate. Add 2 μL of 2× kinase & Metal solution were mixed and incubated in a 384-assay plate for 10 min at 25 °C. 2 μL of 2×ATP solution was added and incubated at 25 °C for 60 min. And then, each well was supplemented with 4 µL of ADP-Glo^TM reagent and incubated at 25 °C for 40 min. Subsequently, 8 µL of Kinase Detection Reagent was added and incubated at 25 °C for 40 min. Finally, the luminescence signals were recorded. The IC50 values were calculated using GraphPad Prism 9.5 software.
For orientation: In ADP-Glo the light output rises with the ADP produced.

Experiment [5] deals with ERK2 (Homo sapiens, UniProt P28482). Put plainly: ADP-Glo kinase assay. In kind it is biochemical. The conditions noted are these: for inhibition at 0.5 µM: read-out: Enzyme inhibitory activity (500 nM, %) ERK2. On the procedure:
as §3, §4

In experiment [6] the target is ERK5 (Homo sapiens, UniProt Q13164). In words: ADP-Glo kinase assay. In kind it is biochemical. To be noted: for inhibition at 0.5 µM: read-out: Enzyme inhibitory activity (500 nM, %) ERK5. As for the experimental part: as §3, §4
ERK5, sequence (Q13164 whole entry): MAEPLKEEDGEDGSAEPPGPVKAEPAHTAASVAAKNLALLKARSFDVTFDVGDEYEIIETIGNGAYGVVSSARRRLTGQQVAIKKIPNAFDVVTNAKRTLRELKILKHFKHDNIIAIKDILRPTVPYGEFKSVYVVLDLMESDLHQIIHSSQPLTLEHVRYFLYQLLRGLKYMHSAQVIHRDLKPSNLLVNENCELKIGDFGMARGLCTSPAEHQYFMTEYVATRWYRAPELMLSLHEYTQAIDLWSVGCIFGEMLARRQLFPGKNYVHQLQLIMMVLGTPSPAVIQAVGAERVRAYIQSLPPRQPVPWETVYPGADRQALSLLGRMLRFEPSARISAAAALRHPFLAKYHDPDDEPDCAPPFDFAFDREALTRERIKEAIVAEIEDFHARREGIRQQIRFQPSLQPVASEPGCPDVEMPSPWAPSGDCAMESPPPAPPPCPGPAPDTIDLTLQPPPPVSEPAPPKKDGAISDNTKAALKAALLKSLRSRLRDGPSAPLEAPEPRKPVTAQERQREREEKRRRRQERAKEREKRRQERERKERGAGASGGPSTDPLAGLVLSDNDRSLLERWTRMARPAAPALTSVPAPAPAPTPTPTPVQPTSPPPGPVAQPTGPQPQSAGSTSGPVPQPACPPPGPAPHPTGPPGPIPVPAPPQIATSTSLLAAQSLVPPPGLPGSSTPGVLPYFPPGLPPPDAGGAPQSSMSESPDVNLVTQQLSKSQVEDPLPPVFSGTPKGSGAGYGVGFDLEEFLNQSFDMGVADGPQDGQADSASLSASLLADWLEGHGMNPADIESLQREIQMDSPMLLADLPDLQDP

ERK1, sequence (P27361 whole entry, the tested form may be a part): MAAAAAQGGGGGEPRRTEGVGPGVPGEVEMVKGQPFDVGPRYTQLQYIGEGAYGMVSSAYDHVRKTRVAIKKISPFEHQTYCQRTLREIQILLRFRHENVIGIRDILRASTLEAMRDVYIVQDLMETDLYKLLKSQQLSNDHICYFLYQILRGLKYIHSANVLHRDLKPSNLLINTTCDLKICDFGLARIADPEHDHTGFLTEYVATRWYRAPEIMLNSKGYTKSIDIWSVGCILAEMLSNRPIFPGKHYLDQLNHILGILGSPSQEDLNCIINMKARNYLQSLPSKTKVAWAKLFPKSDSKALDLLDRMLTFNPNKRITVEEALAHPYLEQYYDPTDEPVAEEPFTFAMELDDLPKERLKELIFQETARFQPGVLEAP
ERK2, sequence (P28482 whole entry): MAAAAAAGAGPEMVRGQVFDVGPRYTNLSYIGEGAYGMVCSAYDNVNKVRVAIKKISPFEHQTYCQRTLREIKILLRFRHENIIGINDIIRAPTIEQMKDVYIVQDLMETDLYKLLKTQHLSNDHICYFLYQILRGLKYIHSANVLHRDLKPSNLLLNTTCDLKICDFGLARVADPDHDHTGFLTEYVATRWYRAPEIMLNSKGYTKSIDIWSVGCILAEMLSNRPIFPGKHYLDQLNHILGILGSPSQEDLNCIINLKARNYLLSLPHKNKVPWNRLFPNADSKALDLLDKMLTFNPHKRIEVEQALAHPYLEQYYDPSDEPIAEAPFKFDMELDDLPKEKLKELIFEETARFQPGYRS

The term IC50 denotes the concentration needed to halve the response being measured. Consider `CC(C)Nc1cc(-c2c[nH]c(C(=O)N[C@H](CO)c3cccc(Cl)c3)c2)c(Cl)cn1` [BVD-523, reference compound], for which the IC50 came out at 6.47 ± 0.19 µM in experiment [1] (Homo sapiens, MDA-MB-231, read-out: IC50 MDA-MB-231, MTT, 72 h) and 5.26 ± 0.66 µM in experiment [2] (Homo sapiens, MDA-MB-468, MTT, 72 h). The compound further had a tumor inhibition rate in experiment [3] of 36.01%.

Turning to `CN1CCN(NC(=O)c2cc(-c3nc(Nc4ccnn4C)ncc3Cl)cs2)CC1` [6a, 4-(5-chloro-2-((1-methyl-1H-pyrazol-5-yl)amino)pyrimidin-4-yl)-N-(4-methylpiperazin-1-yl)thiophene-2-carboxamide], the figures for the inhibition at 0.5 µM in experiment [4], in experiment [5] and in experiment [6] were 95.72 ± 0.65%, 97.4 ± 3.45% and 63.8 ± 0.32%, respectively. For the same compound, in experiment [1], the “Anti-proliferative activity (10 μM, %) MDA-MB-231” value worked out at 15.06 ± 0.35%. Also, the “Anti-proliferative activity (10 μM, %) MDA-MB-468” value in experiment [2] amounted to 10.78 ± 1.32%.

Consider `Cn1nccc1Nc1ncc(Cl)c(-c2csc(C(=O)Nc3cccc(N)c3)c2)n1` [6p], for which the “Enzyme inhibitory activity (500 nM, %) ERK1” value in experiment [4] is reported as 86.34 ± 0.79%. In addition, the “Enzyme inhibitory activity (500 nM, %) ERK2” value in experiment [5] came to 84.67 ± 0.65%. In experiment [6], the “Enzyme inhibitory activity (500 nM, %) ERK5” value came to 77.49 ± 0.89%. In experiment [1], the “Anti-proliferative activity (10 μM, %) MDA-MB-231” value turned out to be 33.51 ± 0.32%. Besides, the “Anti-proliferative activity (10 μM, %) MDA-MB-468” value in experiment [2] amounted to 28.42 ± 1.21%.

As to `CCc1cccc(NC(=O)c2cc(-c3nc(Nc4ccnn4C)ncc3Cl)cs2)c1` [6r], the “Enzyme inhibitory activity (500 nM, %) ERK1” value in experiment [4] was found to be 88.34 ± 1.78%. In addition, the “Enzyme inhibitory activity (500 nM, %) ERK2” value in experiment [5] amounted to 89.45 ± 1.55%. Further, the “Enzyme inhibitory activity (500 nM, %) ERK5” value in experiment [6] was determined as 67.34 ± 3.20%. Also, the “Anti-proliferative activity (10 μM, %) MDA-MB-231” value in experiment [1] is 15.53 ± 0.90%. The “Anti-proliferative activity (10 μM, %) MDA-MB-468” value in experiment [2] is on record as 30.21 ± 1.11%.

Turning to `CC(C)N1CCN(C(=O)c2cc(-c3nc(Nc4ccnn4C)ncc3Cl)cs2)CC1` [6c], in experiment [4], the “Enzyme inhibitory activity (500 nM, %) ERK1” value stood at 21.57 ± 2.34%. The “Enzyme inhibitory activity (500 nM, %) ERK2” value in experiment [5] came to 14.38 ± 0.24%. Besides, the “Enzyme inhibitory activity (500 nM, %) ERK5” value in experiment [6] came out at 19.12 ± 2.15%. The “Anti-proliferative activity (10 μM, %) MDA-MB-231” value in experiment [1] stood at 5.71 ± 1.21%. In addition, in experiment [2], the “Anti-proliferative activity (10 μM, %) MDA-MB-468” value was found to be 3.51 ± 0.77%.

On to `Cn1nccc1Nc1ncc(Cl)c(-c2csc(C(=O)N[C@H]3CC[C@H](O)CC3)c2)n1` [6f], for which, in experiment [4], the “Enzyme inhibitory activity (500 nM, %) ERK1” value turned out to be 89.31 ± 0.87%. Further, the “Enzyme inhibitory activity (500 nM, %) ERK2” value in experiment [5] is on record as 89.54 ± 2.31%. In addition, in experiment [6], the “Enzyme inhibitory activity (500 nM, %) ERK5” value amounted to 35.94 ± 1.21%. Moreover, the “Anti-proliferative activity (10 μM, %) MDA-MB-231” value in experiment [1] is 11.85 ± 2.31%. In experiment [2], the “Anti-proliferative activity (10 μM, %) MDA-MB-468” value was 57.68 ± 1.09%.

As to `CC(C)Oc1ccc(NC(=O)c2cc(-c3nc(Nc4ccnn4C)ncc3Cl)cs2)cc1` [6ae], in experiment [4], the “Enzyme inhibitory activity (500 nM, %) ERK1” value is listed as 93.45 ± 1.80%. For the same compound, the “Enzyme inhibitory activity (500 nM, %) ERK2” value in experiment [5] was 95.32 ± 0.08%. For the same compound, in experiment [6], the “Enzyme inhibitory activity (500 nM, %) ERK5” value is 61.02 ± 1.22%. The “Anti-proliferative activity (10 μM, %) MDA-MB-231” value in experiment [1] came out at 15.96 ± 0.09%. In addition, the “Anti-proliferative activity (10 μM, %) MDA-MB-468” value in experiment [2] was 4.62 ± 0.89%.

`CCOc1cc(N2CCC(O)CC2)ccc1Nc1ncc2c(n1)N(C)c1ccccc1C(=O)N2C` [XMD8-92]: the tumor inhibition rate in experiment [3] was 7.75%.

Turning to `Cn1nccc1Nc1ncc(Cl)c(-c2csc(C(=O)NC3CCSCC3)c2)n1` [6d], the “Enzyme inhibitory activity (500 nM, %) ERK1” value in experiment [4] was 93.12 ± 1.89%. For the same compound, the “Enzyme inhibitory activity (500 nM, %) ERK2” value in experiment [5] worked out at 91.52 ± 0.31%. The “Enzyme inhibitory activity (500 nM, %) ERK5” value in experiment [6] was 34.57 ± 1.42%. Further, the “Anti-proliferative activity (10 μM, %) MDA-MB-231” value in experiment [1] is listed as 37.21 ± 0.72%. Moreover, the “Anti-proliferative activity (10 μM, %) MDA-MB-468” value in experiment [2] was 23.35 ± 2.34%.

Regarding `Cn1nccc1Nc1ncc(Cl)c(-c2csc(C(=O)Nc3cccc(OC(F)(F)F)c3)c2)n1` [6n], the “Enzyme inhibitory activity (500 nM, %) ERK1” value in experiment [4] is reported as 67.08 ± 0.98%. Moreover, the “Enzyme inhibitory activity (500 nM, %) ERK2” value in experiment [5] came to 66.54 ± 2.11%. Further, the “Enzyme inhibitory activity (500 nM, %) ERK5” value in experiment [6] came out at 18.64 ±2.32%. In addition, in experiment [1], the “Anti-proliferative activity (10 μM, %) MDA-MB-231” value came to 43.93 ± 0.21%. The “Anti-proliferative activity (10 μM, %) MDA-MB-468” value in experiment [2] amounted to 33.21 ± 0.54%.

As for `Cn1nccc1Nc1ncc(Cl)c(-c2csc(C(=O)Nc3cccc(C(F)(F)F)c3)c2)n1` [6m], the “Enzyme inhibitory activity (500 nM, %) ERK1” value in experiment [4] turned out to be 50.98 ± 3.23%. In addition, the “Enzyme inhibitory activity (500 nM, %) ERK2” value in experiment [5] is 53.43 ± 0.43%. The “Enzyme inhibitory activity (500 nM, %) ERK5” value in experiment [6] is recorded as 35.45 ± 1.32%. Also, the “Anti-proliferative activity (10 μM, %) MDA-MB-231” value in experiment [1] is listed as 34.62 ± 1.24%. In addition, the “Anti-proliferative activity (10 μM, %) MDA-MB-468” value in experiment [2] turned out to be 30.41 ± 0.68%.

`Cc1cc(NC(=O)c2cc(-c3nc(Nc4cccc(CN(C)C)c4)ncc3Cl)cs2)ccn1` [18j, 4-(5-chloro-2-((3-((dimethylamino)methyl)phenyl)amino)pyrimidin-4-yl)-N-(2-methylpyridin-4-yl)thiophene-2-carboxamide]: the values for the inhibition at 0.5 µM in experiment [4], in experiment [5] and in experiment [6] were 7.98 ± 0.6%, 5.97 ± 1.02% and 81.8 ± 2.1%, respectively. In addition, the “Anti-proliferative activity (10 μM, %) MDA-MB-231” value in experiment [1] is 39.25 ± 0.21%. The “Anti-proliferative activity (10 μM, %) MDA-MB-468” value in experiment [2] is recorded as 59.17 ± 2.12%.

For the compound `Cc1cc(NC(=O)c2cc(-c3nc(Nc4ccnn4C)ncc3Cl)cs2)ccn1` [6g], in experiment [4], the “Enzyme inhibitory activity (500 nM, %) ERK1” value was determined as 70.32 ± 0.91%. Moreover, the “Enzyme inhibitory activity (500 nM, %) ERK2” value in experiment [5] was determined as 72.75 ± 2.14%. In addition, in experiment [6], the “Enzyme inhibitory activity (500 nM, %) ERK5” value worked out at 73.61 ± 3.12%. For the same compound, the “Anti-proliferative activity (10 μM, %) MDA-MB-231” value in experiment [1] was 6.82 ± 2.13%. For the same compound, the “Anti-proliferative activity (10 μM, %) MDA-MB-468” value in experiment [2] was 20.23 ± 0.32%.

The values above are taken from publication PMC11842588, “A first-in-class selective inhibitor of ERK1/2 and ERK5 overcomes drug resistance with a single-molecule strategy” (Signal Transduction and Targeted Therapy, 2025).
